The values that follow come from patent US10738007B2, “Amide compounds as kinase inhibitors, compositions and methods of treatment” (TRANSLATIONAL DRUG DEVELOPMENT, LLC, priority 2016, dated 2020).

Assay [1] deals with ROCK2 (Homo sapiens (Human), UniProt O75116). As to the kind of experiment: ROCK2 kinase inhibition assay (peptide phosphorylation, LABCHIP 3000). The class given is biochemical. Particulars: 7 μM ATP, 2.5 nM ROCK2, 3 hours at 25° C.
Method: The peptide is phosphorylated by the protein kinase ROCK1 or ROCK2. The ROCK1 or ROCK2 enzyme, substrate, and cofactors (ATP and Mg^2+) are combined in a well of a microtiter plate and incubated for 3 hours at 25° C. in the presence or absence of an inhibitor compound. At the end of the incubation, the reaction is quenched by the addition of an EDTA-containing buffer. The substrate and product are separated and quantified electrophoretically using the microfluidic-based LABCHIP® 3000 Drug Discovery System from Caliper Life Sciences (Hopkinton, Mass.).
The components of the assay mixture are:
10 μM Sodium Orthovanadate
10 LM Beta-Glycerophosphate
5 μM ATP (for ROCK1) or 7 μM ATP (for ROCK2)
3 nM ROCK1 or 2.5 nM ROCK2 enzyme
Substrate and product peptides present in each sample are separated electrophoretically using the LABCHIP® 3000 capillary electrophoresis instrument. […] Change in the relative fluorescence intensity of the substrate and product peaks is the parameter measured reflecting enzyme activity. Capillary electrophoregramms (RDA acquisition files) are analyzed using HTS Well Analyzer software (Caliper Life Sciences, Hopkinton, Mass.). The kinase activity in each sample is determined as the product to sum ratio (PSR): P/(S+P), where P is the peak height of the product peptide and S is the peak height of the substrate peptide. For each compound, enzyme activity is measured at various concentrations (12 concentrations of compound spaced by 3× dilution intervals). Negative control samples (0%-inhibition in the absence of inhibitor) and positive control samples (100%-inhibition in the presence of 20 mM EDTA) are assembled in replicates of four and are used to calculate %-inhibition values for each compound at each concentration. Percent inhibition (Pinh) is determined using the following equation: Pinh=(PSRO %−PSRinh)/(PSRO %−PSR100%)*100
where PSRinh is the product sum ratio in the presence of inhibitor, PSRO % is the average product sum ratio in the absence of inhibitor, and PSR100% is the average product sum ratio in 100%-inhibition control samples. The IC50 values of inhibitors are determined by fitting the inhibition curves (Pinh versus inhibitor concentration) by the 4-parameter sigmoidal dose-response model using XLfit 4 software (IBDS).
Assay [2] has as its system MV411 cell line. As to the kind of experiment: Cell viability assay ([…]-GLO), MV411. The note with it: for IC50: MV411 (ITD-FLT3+), 72 hours treatment; for FLT3-ITD+ Selectivity (K562/MV411): ratio K562/MV411. The class given is cell-based.
Method: Cell viability was measured by the […] -GlO® cell viability assay from Promega (Madison, Wis.). The […] -GlO Luminescent Cell Viability Assay is a homogeneous method to determine the number of viable cells in culture based on quantitation of the ATP present, which signals the presence of metabolically active cells. Following treatment, […] -GlO® is added to treatment wells and incubated at 37° C. Luminescence values were measured at using a Molecular Devices Spectramax microplate reader.
Assay [3] concerns K562 cell line. The experiment in a line: Cell viability assay ([…]-GLO), K562. The class given is cell-based. The note with it: K562 (does not express ITD-FLT3), 72 hours treatment. The method, then: Cell viability in the presence of varying concentrations of the above listed compounds at different time points was used to assess cytotoxicity and the effect of the compounds on cell proliferation.
Cell viability was measured by the […]-GlO® cell viability assay from Promega (Madison, Wis.). The […]-GlO Luminescent Cell Viability Assay is a homogeneous method to determine the number of viable cells in culture based on quantitation of the ATP present, which signals the presence of metabolically active cells. Following treatment, […]-GlO® is added to treatment wells and incubated at 37° C. Luminescence values were measured at using a Molecular Devices Spectramax microplate reader.
Cells were grown to 70% confluency, trypsinized, counted, and seeded in 96 well flat-bottom plates at a final concentration of 2.5×10^3-5×10^3 cells/well (Day 0). Cells were allowed to incubate in growth media for 24 hours. Treatment with the test agents or standard agents began on Day 1 and continued for 72 hours. At the 72-hour time point, treatment containing media was removed. Viable cell numbers were quantified by the […]-GLO® cell viability assay as described above. Results from these studies were used to calculate an IC50 value (concentration of drug that inhibits cell growth by 50 percent of control) for each compound.
For single agent and combination studies, data from each experiment was collected and expressed as % Cell Growth using the following calculation: % Cell Growth=(ftest/fvehicle)×100
Where ftest is the luminescence of the tested sample, and fvehicle is the luminescence of the vehicle in which the drug is dissolved. Dose response graphs and IC50 values were generated using Prism 6 software (GraphPad) using the following equation: Y=(Top−Bottom)/(1+10^((logIC50-X)−HillSlope))
Where X is the logarithm of the concentration and Y is the response. Y starts at the Bottom and goes to the Top with a sigmoid shape.
The experiments also evaluated the selectivity of the compounds for inhibiting growth of cancer cells carrying a mutation in the Flt3 gene. The MV411 cell line expresses the mutant allele of Flt3 with internal tandem duplications (ITD) of the gene. See Quentmeier et al., “FLT3 Mutations in Acute Myeloid Leukemia Cell Lines,” Leukemia 17(1), 2003, 120-124. […] See Grafone et al., “Monitoring of FLT3 Phosphorylation Status and Its Response to Drugs By Flow Cytometry in AML Blast Cells,” Hematol Oncol. 26(3), 2008, 159-166.

Sequence of ROCK2 (O75116 whole entry, species assumed): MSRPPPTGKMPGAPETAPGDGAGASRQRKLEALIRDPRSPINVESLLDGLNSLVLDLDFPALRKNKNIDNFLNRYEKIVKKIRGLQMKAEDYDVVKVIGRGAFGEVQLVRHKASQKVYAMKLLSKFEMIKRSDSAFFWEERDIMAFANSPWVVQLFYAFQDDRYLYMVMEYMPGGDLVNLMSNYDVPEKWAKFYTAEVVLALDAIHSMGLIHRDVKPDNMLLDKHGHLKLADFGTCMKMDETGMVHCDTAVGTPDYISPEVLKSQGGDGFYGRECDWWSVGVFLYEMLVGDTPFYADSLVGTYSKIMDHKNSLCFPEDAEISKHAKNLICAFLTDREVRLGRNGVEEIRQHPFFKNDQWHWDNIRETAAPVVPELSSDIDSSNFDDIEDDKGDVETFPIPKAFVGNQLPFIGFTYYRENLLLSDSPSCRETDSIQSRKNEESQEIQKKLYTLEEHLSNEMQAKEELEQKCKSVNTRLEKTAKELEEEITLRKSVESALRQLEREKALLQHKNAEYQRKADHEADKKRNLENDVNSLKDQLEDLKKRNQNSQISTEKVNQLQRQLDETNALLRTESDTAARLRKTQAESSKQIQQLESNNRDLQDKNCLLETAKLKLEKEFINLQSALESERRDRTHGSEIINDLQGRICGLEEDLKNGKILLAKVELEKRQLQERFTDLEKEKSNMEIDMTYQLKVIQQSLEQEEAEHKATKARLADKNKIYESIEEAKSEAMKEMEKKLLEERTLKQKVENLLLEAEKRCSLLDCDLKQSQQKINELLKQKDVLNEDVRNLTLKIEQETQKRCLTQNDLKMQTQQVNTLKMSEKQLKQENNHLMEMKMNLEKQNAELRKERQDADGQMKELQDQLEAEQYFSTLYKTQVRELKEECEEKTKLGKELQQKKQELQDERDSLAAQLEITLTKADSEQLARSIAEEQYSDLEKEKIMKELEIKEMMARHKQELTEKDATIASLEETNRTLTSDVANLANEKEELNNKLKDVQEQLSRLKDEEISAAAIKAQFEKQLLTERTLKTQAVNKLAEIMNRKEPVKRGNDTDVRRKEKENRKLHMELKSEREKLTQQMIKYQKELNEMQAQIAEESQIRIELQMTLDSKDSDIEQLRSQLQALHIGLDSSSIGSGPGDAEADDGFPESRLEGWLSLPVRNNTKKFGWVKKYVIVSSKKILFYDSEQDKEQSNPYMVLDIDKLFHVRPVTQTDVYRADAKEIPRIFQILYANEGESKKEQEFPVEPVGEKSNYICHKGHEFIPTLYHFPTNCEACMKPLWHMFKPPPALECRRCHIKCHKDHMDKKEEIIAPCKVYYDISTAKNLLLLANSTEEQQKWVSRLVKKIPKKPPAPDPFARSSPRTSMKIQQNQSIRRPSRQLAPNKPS

As a reminder, the IC50 is the concentration that gives 50% inhibition. For the compound `CN(C)Cc1cccc(NC(=O)c2cccc([C@@H](CO)NC(=O)c3ccc(-c4ccncc4)cc3)c2)c1` [Compound 14], the IC50 came out at 1.6 nM in assay [1]; 90 nM in assay [2] (Homo sapiens, MV4-11); 48000 nM in assay [3] (Homo sapiens). In assay [2], the “FLT3-ITD+ Selectivity (K562/MV411)” value was 532.
As for `COC(=O)N1CCC(CNC(=O)c2cccc([C@@H](CO)NC(=O)c3ccc(-c4ccncc4)cc3)c2)CC1` [Compound 91], the IC50 in assay [1] is 0.57 nM; in assay [2], 30 nM; in assay [3] it was above 100000 nM. In assay [2], the “FLT3-ITD+ Selectivity (K562/MV411)” value is given as above 4040.
For the compound `O=C(NCC1(O)CCCCC1)c1cccc([C@@H](CO)NC(=O)c2ccc(-c3ccncc3)cc2)c1` [Compound 69], the IC50 in assay [1] is 0.7 nM; in assay [2] (Homo sapiens, MV4-11), 150 nM; in assay [3] (Homo sapiens), 52000 nM. Also, in assay [2], the “FLT3-ITD+ Selectivity (K562/MV411)” value is reported as 350.
The corresponding values for `O=C(NC1CCC1)c1cccc([C@@H](CO)NC(=O)c2ccc(-c3ccncc3)cc2)c1` [Compound 48] are 1.01 nM, 440 nM, above 100000 nM and above 230.
The corresponding values for `COc1ccc(C(=O)N[C@H](CO)c2cccc(C(=O)Nc3nc4c(s3)CN(C)CC4)c2)cc1C` [Compound 18] are 19.6 nM, 15900 nM, above 100000 nM and above 6.
With `COc1cccc(CNC(=O)c2cccc([C@@H](CO)NC(=O)c3ccc(-c4ccncc4)cc3)c2)c1` [Compound 65], the IC50 in assay [1] amounted to 0.6 nM; in assay [2] (Homo sapiens, MV4-11), 70 nM; in assay [3] (Homo sapiens) it was 28000 nM. Moreover, the “FLT3-ITD+ Selectivity (K562/MV411)” value in assay [2] stood at 393.
The corresponding values for `CC(NC(=O)c1ccc(-c2ccncc2)cc1)c1cccc(OCC(=O)NC2CC2)c1` (centres unmarked) [Compound 15] are 9 nM, 4000 nM, above 100000 nM and above 25.
Take `CCN1CCC(CNC(=O)c2cccc([C@@H](CO)NC(=O)c3ccc(-c4ccncc4)cc3)c2)CC1` [Compound 59]: the IC50 in assay [1] was 0.46 nM; in assay [2] (Homo sapiens, MV4-11) it was 280 nM; in assay [3] (Homo sapiens) it was above 100000 nM. In addition, in assay [2], the “FLT3-ITD+ Selectivity (K562/MV411)” value is on record as above 361.
The corresponding values for `C[C@@H](NC(=O)c1ccc(-c2ccncc2)cc1)c1cccc(C(=O)NCc2ccc(CN(C)C)cc2)c1` [Compound 39] are 0.3 nM, 10 nM, 9400 nM and 940.
The corresponding values for `CN1CCC(CNC(=O)c2cccc([C@@H](CO)NC(=O)c3ccc(-c4ccncc4)cc3)c2)CC1` [Compound 23] are 0.3 nM, 90 nM, 56000 nM and 632.
The corresponding values for `O=C(NCC1CC1)c1cccc([C@@H](CO)NC(=O)c2ccc(-c3ccncc3)cc2)c1` [Compound 84] are 1.2 nM, 270 nM, 33000 nM and 123.
For `COc1ccc(C(=O)N[C@H](C)c2cccc(C(=O)NCC3CCN(C(C)C)CC3)c2)cc1C` [Compound 68], half-maximal inhibition in assay [1] (IC50) required 104 nM.
Consider `COc1cc(-c2ccncc2)ccc1C(=O)N[C@H](CO)c1cccc(C(=O)NC2CCCC2)c1` [Compound 110], for which the IC50 in assay [1] is 2.5 nM; in assay [2] (Homo sapiens, MV4-11) it was 410 nM; in assay [3] (Homo sapiens), above 100000 nM. For the same compound, the “FLT3-ITD+ Selectivity (K562/MV411)” value in assay [2] was determined as 246.
Regarding `O=C(NCc1ccccc1)c1cccc([C@@H](CO)NC(=O)c2ccc(-c3ccncc3)cc2)c1` [Compound 13], the concentration for half-maximal inhibition (IC50) in assay [1] was determined as 1.7 nM; in assay [2] (Homo sapiens, MV4-11), 3000 nM; in assay [3] (Homo sapiens), 27000 nM. Also, in assay [2], the “FLT3-ITD+ Selectivity (K562/MV411)” value is 9.
The corresponding values for `O=C(NC1CCCC1)c1cccc([C@@H](CO)NC(=O)c2ccc(-c3cn[nH]c3)cc2)c1` [Compound 46] are 1.88 nM, 90 nM, 11000 nM and 122.
With `CC(C)N1CCC(CNC(=O)c2cccc([C@@H](CO)NC(=O)c3ccc(-c4ccncc4)cc3)c2)CC1` [Compound 56], the IC50 in assay [1] was 0.31 nM; in assay [2] (Homo sapiens, MV4-11), 90 nM; in assay [3] (Homo sapiens), above 100000 nM. Besides, the “FLT3-ITD+ Selectivity (K562/MV411)” value in assay [2] is on record as above 1122.
With `O=C(NC1CCN(C2CC2)CC1)c1cccc([C@@H](CO)NC(=O)c2ccc(-c3ccncc3)cc2)c1` [Compound 54], the IC50 in assay [1] is 0.54 nM; in assay [2] (Homo sapiens, MV4-11) it was 70 nM; in assay [3] (Homo sapiens), above 100000 nM. The “FLT3-ITD+ Selectivity (K562/MV411)” value in assay [2] is recorded as above 1443.
Take `O=C(NC1CCCC1)c1cccc([C@@H](CO)NC(=O)c2ccc(-c3ccncc3)cn2)c1` [Compound 51]: the IC50 in assay [1] was 4.38 nM; in assay [2] (Homo sapiens, MV4-11) it was 1450 nM; in assay [3] (Homo sapiens), above 100000 nM. Further, in assay [2], the “FLT3-ITD+ Selectivity (K562/MV411)” value was above 70.
Turning to `CN1CCc2ccc(NC(=O)c3cccc([C@@H](CO)NC(=O)c4cccc(-c5ccn[nH]5)c4)c3)cc2C1` [Compound 42], the IC50 in assay [1] amounted to 72.6 nM.
On the same count and under the same terms, the result for `C[C@H](c1cccc(C(=O)NC2CCCC2)c1)N(CCN(C)C)C(=O)c1ccc(-c2ccncc2)cc1` [Compound 98] reads 0.23 nM; that for `CN1CCc2ccc(NC(=O)c3cccc([C@@H](CO)NC(=O)c4ccc(-c5ccn[nH]5)cc4)c3)cc2C1` [Compound 43], 9.3 nM; that for `CN1CCc2ccc(NC(=O)c3cccc([C@@H](CO)NC(=O)c4ccc(-c5cccnc5)cc4)c3)cc2C1` [Compound 44], 240 nM.
In the case of `CN1CCc2ccc(NC(=O)c3cccc([C@@H](CO)NC(=O)c4cccc(-c5ccncc5)c4)c3)cc2C1` [Compound 41], in assay [1], the IC50 was found to be 6.53 nM.
As to `COc1cccc(CN(CCN(C)C)C(=O)c2cccc([C@@H](CO)NC(=O)c3ccc(-c4ccncc4)cc3)c2)c1` [Compound 25], it took 18900 nM to reach half-maximal inhibition in assay [2] (Homo sapiens, MV4-11) (IC50).
For the compound `COCCOc1cccc(CNC(=O)c2cccc([C@@H](CO)NC(=O)c3ccc(-c4ccncc4)cc3)c2)c1` [Compound 34], the concentration for half-maximal inhibition (IC50) in assay [1] worked out at 0.69 nM.
Compound `CN(C)Cc1cccc(CNC(=O)c2cccc([C@@H](CO)NC(=O)c3ccc(-c4ccncc4)cc3)c2)c1` [Compound 33] gave an IC50 in assay [1] of 0.38 nM.
On to `O=C(NC1CCCC1)c1cccc([C@@H](CO)NC(=O)c2cccc(-c3cn[nH]c3)c2)c1` [Compound 83], for which the half-maximal inhibitory concentration (IC50) in assay [2] (Homo sapiens, MV4-11) was 3600 nM; in assay [3] (Homo sapiens), above 100000 nM. Also, in assay [2], the “FLT3-ITD+ Selectivity (K562/MV411)” value is above 28.
Turning to `COc1ccc(C(=O)N[C@H](CO)c2cccc(C(=O)Nc3ccc4c(c3)CN(C)CC4)c2)cc1C` [Compound 19], the IC50 is 13200 nM in assay [2] (Homo sapiens, MV4-11) and 44000 nM in assay [3] (Homo sapiens). The “FLT3-ITD+ Selectivity (K562/MV411)” value in assay [2] is 3.
Compound `O=C(NC1CCCC1)c1cccc([C@@H](CO)NC(=O)c2cccc(-c3cn[nH]c3)c2)c1` [Compound 106] had an IC50 in assay [1] of 20 nM.
Regarding `CN(C(=O)c1cccc([C@@H](CO)NC(=O)c2ccc(-c3ccncc3)cc2)c1)C1CC1` [Compound 38], the IC50 in assay [1] came to 56 nM; in assay [2] (Homo sapiens, MV4-11) it was 20000 nM.
With `CN1CCc2ccc(NC(=O)c3cccc([C@@H](CO)NC(=O)c4ccc(-c5ccncc5)cn4)c3)cc2C1` [Compound 37], the IC50 stood at 3 nM in assay [1] and 1700 nM in assay [2] (Homo sapiens, MV4-11).
As to `CN1Cc2ccc(NC(=O)c3cccc([C@@H](CO)NC(=O)c4ccc(-c5ccncc5)cc4)c3)cc2C1` [Compound 8], 1.3 nM corresponded to half-maximal inhibition in assay [1] (IC50).
The compound `CN1CCOc2ccc(NC(=O)c3cccc([C@@H](CO)NC(=O)c4ccc(-c5ccncc5)cc4)c3)cc2C1` [Compound 29] registered an IC50 in assay [2] (Homo sapiens, MV4-11) of 65100 nM.
`CN(C(=O)c1ccc(-c2ccncc2)cc1)[C@H](CO)c1cccc(C(=O)NC2CCCC2)c1` [Compound 45]: half-maximal inhibition in assay [1] (IC50) required 257 nM.
For the compound `C[C@@H](NC(=O)c1ccc(-c2ccncc2)cc1)c1cccc(C(=O)NCC2CCC(F)(F)CC2)c1` [Compound 40], the IC50 in assay [1] was determined as 0.41 nM; in assay [2] (Homo sapiens, MV4-11), 3400 nM.
Consider `Cc1c[nH]c2nccc(Oc3c(F)cc(Nc4cc(Cl)nc(N)n4)cc3F)c12` [Compound A, reference compound], for which the IC50 in assay [2] (Homo sapiens, MV4-11) is 700 nM; in assay [3] (Homo sapiens) it was 800 nM.
